From patent US8268848B2, “Cyclopropane compound” (Eisai R&D Management Co., Ltd., priority 2010, dated 2012)

Biological target: T1, OX2 (Homo sapiens, UniProt O43614)
T1 sequence (O43614 1-444): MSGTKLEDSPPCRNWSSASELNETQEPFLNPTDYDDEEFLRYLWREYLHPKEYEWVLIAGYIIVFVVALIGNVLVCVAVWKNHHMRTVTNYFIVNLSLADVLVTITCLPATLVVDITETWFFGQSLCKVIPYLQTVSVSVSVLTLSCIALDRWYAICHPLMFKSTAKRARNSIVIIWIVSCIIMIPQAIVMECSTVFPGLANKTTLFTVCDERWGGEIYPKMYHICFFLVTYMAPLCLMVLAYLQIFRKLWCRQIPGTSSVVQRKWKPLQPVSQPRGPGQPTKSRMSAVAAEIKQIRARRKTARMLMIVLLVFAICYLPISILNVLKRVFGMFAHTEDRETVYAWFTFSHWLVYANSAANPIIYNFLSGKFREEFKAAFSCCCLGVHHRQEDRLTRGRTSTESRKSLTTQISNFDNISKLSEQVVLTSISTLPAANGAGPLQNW
Test: Measurement of orexin receptor-binding ability ([125I]-OX-A, cell membranes, OX2)
Parameters: expressed in transfected cells; host or cells: CHO cells (membrane preparation)
Conditions: OX2 (IC50) nM, membranes of recombinant CHO cells expressing OX2, 0.2 nM [125I]-OX-A
Method: 1. Measurement of Orexin Receptor-Binding Ability
The assay was carried out using a 96-well Wheat Germ Agglutinin Flash Plate (PerkinElmer). The volume in a single assay well was 100 ul, and the composition of the reaction solution was as follows:
25 mM HEPES (pH 7.5), 1 mM CaCl2, 4.5 mM MgCl2, 0.5% BSA (bovine serum albumin), 0.1% sodium azide, 0.05% Tween-20, and 0.2% DMSO.
Cell membranes were prepared from recombinant CHO cells that expressed OX2 or OX1. The cell membranes were used in an amount of 5 μg protein/assay. […] Finally, the radioactivity of each well was measured using a scintillation counter (TopCount, PerkinElmer).

Compound | IC50
Cc1ncc(OC[C@@]2(c3cccc(F)c3)C[C@H]2C(=O)Nc2cccc(F)c2)c(C)n1 [Example 83] | 14 nM
COCc1nc(C)ncc1OCC1(c2cccc(Cl)c2)CC1C(=O)Nc1ccc(F)cn1 (stereo not shown) [Example 222] | 68 nM
COc1cc([C@]2(COc3cnc(C)nc3C)C[C@H]2C(=O)Nc2ccc(F)cn2)ccc1F [Example 314] | 173 nM
Cc1ncc(OC[C@@]2(c3cccc(C#N)c3)C[C@H]2C(=O)Nc2ccc(F)cn2)c(C)n1 [Example 116] | 14 nM
Cc1ncc(OC[C@@]2(c3ccc(F)cc3)C[C@H]2C(=O)Nc2cccc(F)c2)c(C)n1 [Example 107] | 41 nM
COc1cccc([C@]2(COc3cnc(C)nc3C)C[C@H]2C(=O)Nc2ccc(F)cc2)c1 [Example 187] | 16 nM

Same assay, conditions: membranes of recombinant CHO cells expressing OX2, 0.2 nM [125I]-OX-A; read-out: OX2 (IC50)

Compound | IC50
Cc1ncc(OC[C@@]2(c3cc(F)cc(F)c3)C[C@H]2c2nc3ncccc3[nH]2)c(C)n1 [Example 308] | 31 nM
COCc1nc(C)ncc1OC[C@@]1(c2ccc(F)cc2)C[C@H]1C(=O)Nc1cccc(F)c1 [Example 208] | 11 nM
COCc1nc(C)ncc1OC[C@@]1(c2cc(F)cc(F)c2)C[C@H]1C(=O)Nc1cc(C)c(F)cn1 [Example 220] | 21 nM
COCc1nc(C)ncc1OC[C@@]1(c2ccc(F)cc2)C[C@H]1C(=O)Nc1cc(F)ccc1F [Example 210] | > 60 nM
CCc1nc(C)ncc1OC[C@@]1(c2ccc(F)cc2)C[C@H]1C(=O)Nc1ccc(F)cc1 [Example 250] | 14 nM
Cc1ncc(OC[C@@]2(c3ccccc3)C[C@H]2c2nc3cnccc3[nH]2)c(C)n1 [Example 304] | 90 nM
COCc1nc(C)ncc1OC[C@@]1(c2ccc(F)c(F)c2)C[C@H]1C(=O)Nc1cc(F)ccc1F [Example 215] | 12 nM
COCc1nc(C)ncc1OC[C@@]1(c2cc(F)cc(OC)c2)C[C@H]1C(=O)Nc1ccc(F)cc1 [Example 231, (1R,2S)-2-(3-fluoro-5-methoxyphenyl)-N-(4-fluorophenyl)-2-{[(4-methoxymethyl-2-methylpyrimidin-5-yl)oxy]methyl}cyclopropanecarboxamide] | 7 nM
CCc1nc(C)ncc1OC[C@@]1(c2ccc(F)cc2)C[C@H]1C(=O)Nc1cccc(F)c1 [Example 249] | 17 nM
COCc1nc(C)ncc1OC[C@@]1(c2ccccc2)C[C@H]1C(=O)Nc1cc(F)ccc1F [Example 147] | 69 nM
COCc1nc(C)ncc1OC[C@@]1(c2ccc(F)c(F)c2)C[C@H]1C(=O)Nc1cccc(F)c1F [Example 217] | 21 nM
COc1cc([C@]2(COc3cnc(C)nc3C)C[C@H]2C(=O)Nc2ccccn2)ccc1F [Example 259] | > 60 nM
COc1cc([C@]2(COc3cnc(C)nc3C)C[C@H]2C(=O)Nc2cc(C)c(F)cn2)ccc1F [Example 258] | > 60 nM
COc1cc(F)cc(C2(COc3cnc(C)nc3C)CC2C(=O)Nc2ccc(C#N)cn2)c1 (stereo not shown) [Example 253] | 41 nM
Cc1ncc(OC[C@@]2(c3ccc(F)cc3)C[C@H]2C(=O)Nc2ccc(F)c(F)c2)c(C)n1 [Example 106] | 19 nM
COCc1nc(C)ncc1OC[C@@]1(c2ccc(F)cc2)C[C@H]1C(=O)Nc1ccc(F)cc1F [Example 209] | 48 nM
COCCc1nc(C)ncc1OC[C@@]1(c2cccc(F)c2)C[C@H]1C(=O)Nc1ccccn1 [Example 228] | 45 nM
COCc1nc(C)ncc1OC[C@@]1(c2ccccc2)C[C@H]1C(=O)Nc1cccc(F)c1 [Example 148] | 20 nM
COCc1nc(C)ncc1OC[C@@]1(c2ccccc2)C[C@H]1C(=O)Nc1ccc(F)cc1F [Example 146] | 37 nM

Compound | IC50
Cc1ncc(OC[C@@]2(c3ccc(F)c(F)c3)C[C@H]2C(=O)Nc2cc(F)ccc2F)c(C)n1 [Example 172] | 28 nM
Cc1ncc(OC[C@@]2(c3cccc(C#N)c3)C[C@H]2C(=O)Nc2ccc(F)cc2)c(C)n1 [Example 115] | 21 nM
COCc1nc(C)ncc1OC[C@@]1(c2ccccc2)C[C@H]1C(=O)Nc1cc(Cl)ccn1 [Example 143] | 14 nM
Cc1ncc(OC[C@@]2(c3ccc(F)c(F)c3)C[C@H]2C(=O)Nc2ccc(F)c(F)c2)c(C)n1 [Example 170, (1R,2S)-N,2-bis(3,4-difluorophenyl)-2-{[(2,4-dimethylpyrimidin-5-yl)oxy]methyl}cyclopropanecarboxamide] | 7 nM
COc1cc(F)cc([C@]2(COc3cnc(C)nc3C)C[C@H]2C(=O)Nc2ccc(Cl)cn2)c1 [Example 255] | 27 nM
COCc1nc(C)ncc1OC[C@@]1(c2ccc(F)c(F)c2)C[C@H]1C(=O)Nc1ccc(F)c(F)c1 [Example 214, (1R,2S)-N,2-bis(3,4-difluorophenyl)-2-{[(4-methoxymethyl-2-methylpyrimidin-5-yl)oxy]methyl}cyclopropanecarboxamide] | 7 nM
COCCc1nc(C)ncc1OC[C@@]1(c2cccc(F)c2)C[C@H]1C(=O)Nc1ccc(F)cc1 [Example 230] | 16 nM
COCc1nc(C)ncc1OC[C@@]1(c2ccc(F)c(OC)c2)C[C@H]1C(=O)Nc1ccc(F)cc1 [Example 237] | 31 nM
COCc1nc(C)ncc1OC[C@@]1(c2cccc(F)c2)C[C@H]1C(=O)Nc1cc(F)ccc1F [Example 197, (1R,2S)-N-(2,5-difluorophenyl)-2-(3-fluorophenyl)-2-{[(4-methoxymethyl-2-methylpyrimidin-5-yl)oxy]methyl}cyclopropanecarboxamide] | 7 nM
COCc1nc(C)ncc1OC[C@@]1(c2ccccc2)C[C@H]1C(=O)Nc1ccc(C(F)(F)F)cn1 [Example 144] | 12 nM
CCc1nc(C)ncc1OC[C@@]1(c2cccc(F)c2)C[C@H]1c1nc2cnccc2[nH]1 [Example 309] | 10 nM
COCc1nc(C)ncc1OCC1(c2cccc(Cl)c2)CC1C(=O)Nc1ccc(F)cc1 (stereo not shown) [Example 224] | 27 nM
Cc1ncc(OC[C@@]2(c3ccccc3)C[C@H]2C(=O)Nc2ccnc(C(F)(F)F)c2)c(C)n1 [Example 44] | 26 nM
COc1cc(F)cc(C2(COc3cnc(C)nc3C)CC2C(=O)Nc2ccc(F)cc2)c1 (stereo not shown) [Example 252] | 18 nM
Cc1ncc(OC[C@@]2(c3cc(F)cc(F)c3)C[C@H]2c2nc3ncc(Cl)cc3[nH]2)c(C)n1 [Example 307] | 33 nM
COCc1nc(C)ncc1OC[C@@]1(c2cccc(Cl)c2)C[C@H]1C(=O)Nc1cc(C)c(F)cn1 [Example 226, (1R,2S)-2-(3-chlorophenyl)-N-(5-fluoro-4-methylpyridin-2-yl)-2-{[(4-methoxymethyl-2-methylpyrimidin-5-yl)oxy]methyl}cyclopropanecarboxamide] | 7 nM
COCc1nc(C)ncc1OC[C@@]1(c2ccc(F)c(F)c2)C[C@H]1C(=O)Nc1ccc(F)cc1F [Example 216, (1R,2S)-N-(2,4-difluorophenyl)-2-(3,4-difluorophenyl)-2-{[(4-methoxymethyl-2-methylpyrimidin-5-yl)oxy]methyl}cyclopropanecarboxamide] | 7 nM
COCc1nc(C)ncc1OC[C@@]1(c2cc(F)cc(OC)c2)C[C@H]1C(=O)Nc1ccccn1 [Example 235, (1R,2S)-2-(3-fluoro-5-methoxyphenyl)-2-[(4-methoxymethyl-2-methylpyrimidin-5-yl)oxymethyl]-N-(pyridin-2-yl)cyclopropanecarboxamide] | 6 nM
